Results: publication PMC4635624, “In vitro and in vivo single-agent efficacy of checkpoint kinase inhibition in acute lymphoblastic leukemia” (Journal of Hematology & Oncology, 2015)

Legend:
[1] = tested on: Chk1 pathway (Chk1-Cdc25-Cdc2) in BV-173 and NALM-6 cells; assay: Western blot analysis of Chk1 pathway; format: cell-based, human
From the text: In order to assess whether PF-00477736 efficiently targeted Chk1 pathway, we examined the changes in the downstream phosphorylation of the phosphatase Cdc25C and cyclin-dependent kinase, Cdc2. Moreover, Chk1 itself and γ-H2A.X, which is a marker of stalling replication forks and checkpoint abrogation-induced apoptosis, have been assessed. Functional analyses were initially performed on the most sensitive (BV-173) and the most resistant (NALM-6) B-ALL cell lines, as determined by the viability and apoptosis analyses. Specifically, BV-173 cells were treated with 0.05, 0.1, and 0.2 μM and NALM-6 with 0.1, 0.5, and 1 μM of PF-00477736 for 24 h (Fig. 3a). In the second analysis, BV-173 and NALM-6 cells were treated with the dose of PF-00477736 that goes near to the IC50 (0.1 μM for BV-173 and 1 μM for NALM-6) for 18, 24, 30, and 48 h (Fig. 3b). Thereafter, the same molecular targets have been assessed on all B- and T-ALL cell lines using the dose that goes near to the IC50 (Additional file 1: Figure S4). Active Chk1 phosphorylates Cdc25C at serine 216 throughout the interphase and upon G2 checkpoint activation. This leads to the nuclear export of Cdc25C and its subsequent cytoplasmic sequestration by 14-3-3 protein, which prevents the activation of the downstream target of Cdc25C, the cyclin B/Cdc2 kinase that is responsible for G2/M transition. […] Although the increment of the phosphorylated forms of Chk1 (Ser317 and Ser345) as a consequence of genomic damage amplification, the complete inhibition of Chk1 functionality was confirmed by the progressive reduction of the auto-phosphorylated form of Chk1 (Ser296) in an early time point analysis.
To gain insight into the molecular mechanisms responsible for cell death following treatment, functional analyses by Western blot were performed. Leukemia cell lines were plated in six-well plates at 500,000 cell/1 ml with increasing concentrations of drug for 24 h and incubated at 37 °C. After the treatment, the cells were collected and lysate using a specific buffer made of KH2PO4 0.1 M (pH 7.5), Igepal 1 % (NP-40), β-glicerofosfato 0.1 mM, and complete protease inhibitor cocktail 1× (Roche Diagnostics). […] Finally, all these antibodies were detected using the enhanced chemiluminescence kit ECL (GE) and the compact darkroom ChemiDoc-It (UVP).

[2] = tested on: Chk1 pathway in normal bone marrow mononuclear cells; assay: Western blot analysis in normal cells; format: cell-based, human; settings: in contrast to leukemia cells

Q: How did the “phosphorylated forms of Chk1 (Ser317 and Ser345)” value ([1]; BV-173 0.05-0.2 μM, NALM-6 0.1-1 μM, 24 h) turn out when `Cn1cc(-c2[nH]c3cc(NC(=O)[C@H](N)C4CCCCC4)cc4c3c2C=NNC4=O)cn1` [PF-00477736] was run?
A: dose-dependently increased

Q: What about the γ-H2A.X level ([1]; Western blot and immunofluorescence, 18, 24, 30, 48 h at dose near IC50) of the same compound?
A: time-dependently increase of γ-H2A.X

Q: And the “auto-phosphorylated form of Chk1 (Ser296)” value ([1]; after 3 h of treatment, BV-173 and NALM-6, vs untreated)?
A: drastically reduced

Q: And the “phosphorylated Cdc25c (Ser216) and Cdc2 (Tyr 15) levels” value ([1]; dose- and time-dependent, BV-173 0.05-0.2 μM, NALM-6 0.1-1 μM)?
A: decreased levels of phosphorylated Cdc25c (Ser216) and Cdc2 (Tyr 15)

Q: What about the “phosphorylation of Chk1 (Ser345), Cdc25c (Ser216), Cdc2 (Tyr 15) and phospho-H2A.X” value [2] of the same compound?
A: did not induce protein phosphorylation changes
